Assay results from patent US20230134782A1, “TREATMENT OF SKIN CONDITIONS USING HIGH KRAFFT TEMPERATURE ANIONIC SURFACTANTS” (ARCUTIS BIOTHERAPEUTICS, INC., priority 2020, published 2023).

Assay: not given
Settings: commonly used anionic surfactants; no source or concentration printed; cited from earlier work

**Q.** For `CCCCCCCCCCCCCCCC(=O)[O-].[Na+]` [Sodium palmitate], which “Krafft Temperature” value is on record?
**A.** 69 °C

**Q.** Which “Krafft Temperature” value does the source give for `CCCCCCCCCCOS(=O)(=O)[O-].[Na+]` [Sodium decyl sulfate] here?
**A.** 8.0 °C

**Q.** Which “Krafft Temperature” value does the source give for `CCCCCCCCCCCCCC(=O)[O-].[Na+]` [Sodium myristate] here?
**A.** 39 °C

**Q.** For `CCCCCCCCCCCCCCCCS(=O)(=O)[O-].[Na+]` [Sodium hexadecyl sulfonate], which “Krafft Temperature” value is on record?
**A.** 57.0 °C

**Q.** For `CCCCCCCCCCCCOS(=O)(=O)[O-].[Na+]` [Sodium lauryl sulfate], which “Krafft Temperature” value is on record?
**A.** 16.0 °C

**Q.** For Sodium laureth sulfate, which “Krafft Temperature” value is on record?
**A.** <0 °C

**Q.** For `CCCCCCCCCCS(=O)(=O)[O-].[Na+]` [Sodium decyl sulfonate], which “Krafft Temperature” value is on record?
**A.** 22.5 °C

**Q.** For `CCCCCCCCCCCCCCCCOS(=O)(=O)[O-].[Na+]` [Sodium cetyl sulfate], which “Krafft Temperature” value is on record?
**A.** 45.0 °C

**Q.** For `CCCCCCCCCCCCCCOS(=O)(=O)[O-].[Na+]` [Sodium myristyl sulfate], which “Krafft Temperature” value is on record?
**A.** 30.0 °C

**Q.** Which “Krafft Temperature” value does the source give for `CCCCCCCCCCCCCCCCCC(=O)[O-].[Na+]` [Sodium stearate] here?
**A.** 71 °C

**Q.** With `CCCCCCCCCCCCOP(=O)([O-])[O-].[Na+].[Na+]` [Sodium lauryl phosphate] as the compound, how does the “Krafft Temperature” value read?
**A.** 31.5 °C

**Q.** For `CCCCCCCCCCCCCCCCCCOS(=O)(=O)[O-].[Na+]` [Sodium stearyl sulfate], which “Krafft Temperature” value is on record?
**A.** 56.0 °C

**Q.** Which “Krafft Temperature” value does the source give for `CCCCCCCCCCCCCCS(=O)(=O)[O-].[Na+]` [Sodium myristyl sulfonate, Sodium myristyl* sulfonate] here?
**A.** 48.0 °C

**Q.** Which “Krafft Temperature” value does the source give for `CCCCCCCCCCCCOS(=O)(=O)O.N` [Ammonium lauryl sulfate] here?
**A.** 10 °C

**Q.** With `CCCCCCCCCCCC(=O)[O-].[Na+]` [Sodium laurate] as the compound, how does the “Krafft Temperature” value read?
**A.** 21.5 °C

Assay: Krafft temperature determination in distilled water (water bath, dissolution and frothing on shaking)
Type: physicochemical
Settings: aqueous solution in distilled water: 0.012% ceteth-10 phosphate, 0.017% dicetyl phosphate, 0.014% sodium cetostearyl sulfate
Method: 0.0012 grams of ceteth-10 phosphate (Moravek Lot 671-144-000-A-20190821-JHO) was weighed into a 20 mL glass scintillation vial. 10.0113 grams of distilled water was added to the scintillation vial and the vial was tightly capped and placed in a water bath. […] The surfactant remained as waxy particles sedimented on the bottom of the vial. After equilibration at 53.0° C. for 435 minutes, ceteth-10 phosphate had dissolved and the sample frothed when shaken. The Krafft temperature of a 0.012% ceteth-10 phosphate aqueous solution was determined to be 53.0° C.
0.0019 grams of dicetyl phosphate (Sigma dihexadecyl phosphate lot STBH2863) was weighed into a 20 mL glass scintillation vial. 11.2262 grams of distilled water was added to the scintillation vial and the vial was tightly capped and placed in a water bath. […] After equilibration at 58.0° C. for 450 minutes, dicetyl phosphate had dissolved and the sample frothed when shaken. The Krafft temperature of a 0.017% dicetyl phosphate aqueous solution was determined to be 58.0° C. 0.0024 grams of sodium cetostearyl sulfate (BASF Lanette E Granules Lot 0021826181) was weighed into a 20 mL glass scintillation vial. 17.0763 grams of distilled water was added to the scintillation vial and the vial was tightly capped and placed in a water bath. […] The Krafft temperature of a 0.014% sodium cetostearyl sulfate aqueous solution was determined to be 41.0° C.

**Q.** For “ceteth-10 phosphate [Ceteth - 10 phosphate]”, which “Krafft Temperature” value is on record?
**A.** 53 °C

Same assay, conditions: aqueous solution in distilled water: 0.012% ceteth-10 phosphate, 0.017% dicetyl phosphate, 0.014% sodium cetostearyl sulfate; listed as ceteth-10 phosphate

**Q.** For “ceteth-10 phosphate [Ceteth - 10 phosphate]”, which “Krafft Temperature” value is on record?
**A.** 53 °C
